Assay results as given in patent US4455292A, “Radiological contrast composition and methods” (Board of Regents, the University of Texas System, priority 1982, dated 1984).

Legend:
[1] = molecular target: T1, human brain hexokinase (Homo sapiens, UniProt P19367); details: read-out: Km for glucose utilization by brain hexokinase, Michaelis constant; cited from earlier work
T1 sequence (P19367 1-917): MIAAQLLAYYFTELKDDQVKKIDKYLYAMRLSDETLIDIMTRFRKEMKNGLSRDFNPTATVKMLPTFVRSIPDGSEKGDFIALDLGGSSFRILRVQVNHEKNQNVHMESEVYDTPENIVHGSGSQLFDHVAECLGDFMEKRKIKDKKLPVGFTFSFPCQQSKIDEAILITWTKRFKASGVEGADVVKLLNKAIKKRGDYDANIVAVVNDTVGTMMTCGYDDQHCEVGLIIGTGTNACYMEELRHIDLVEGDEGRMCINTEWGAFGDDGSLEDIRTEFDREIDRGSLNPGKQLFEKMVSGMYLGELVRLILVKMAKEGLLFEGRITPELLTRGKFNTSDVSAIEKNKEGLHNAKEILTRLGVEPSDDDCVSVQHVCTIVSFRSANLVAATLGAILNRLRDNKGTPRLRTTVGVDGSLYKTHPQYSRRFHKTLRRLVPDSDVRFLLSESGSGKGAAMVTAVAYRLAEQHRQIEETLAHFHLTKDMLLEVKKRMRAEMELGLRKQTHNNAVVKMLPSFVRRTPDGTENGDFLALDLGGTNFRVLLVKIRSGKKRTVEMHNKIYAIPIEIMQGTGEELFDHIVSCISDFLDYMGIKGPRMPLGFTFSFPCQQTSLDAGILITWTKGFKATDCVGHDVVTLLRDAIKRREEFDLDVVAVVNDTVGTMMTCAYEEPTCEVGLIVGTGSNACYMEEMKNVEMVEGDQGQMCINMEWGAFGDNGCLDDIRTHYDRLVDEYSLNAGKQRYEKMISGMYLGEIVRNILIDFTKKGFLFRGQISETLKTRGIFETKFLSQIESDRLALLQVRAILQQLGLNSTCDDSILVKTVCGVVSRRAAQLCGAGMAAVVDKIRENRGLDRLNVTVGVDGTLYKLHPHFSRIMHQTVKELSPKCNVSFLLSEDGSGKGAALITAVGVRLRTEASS

[2] = test system: Rat Brain Hexokinase; experiment: Competitive inhibition of rat brain hexokinase; type: biochemical; details: J. Neurochemistry 37: 1000 (1981)
Text: Rather than relying on indirect manipulative steps to avoid contrast agent diffusion to brain, there is a need for an inexpensive, reliable, direct mechanism to avoid central nervous system complications induced by the iodo-benzamido-glucopyranose x-ray contrast agents. Following intense pharmacological research into the biochemical activity of the contrast agents, typified by metrizamide, Applicant has discovered that such compounds interfere with glycolysis metabolism in the brain. […] This interference with the utilization of glucose, which normally serves as the obligatory energy source in the brain, may explain some of the depressive effects of intrathecally administered metrizamide and related compounds.

[3] = test system: patients; details: cerebrospinal myelography patients; cited from earlier work
[4] = reconstituted according to certain directions, at body temperature; cited from earlier work
[5] = molecular target: T1, human brain hexokinase; experiment: Calculated glucose utilization by brain hexokinase (v/Vmax, Michaelis-Menten equation with competitive inhibitor); parameters: from tissue; host or cells: human brain
Text: (§1) The appropriate amount of glucose to be combined with or to be coadministered with a selected iodo-benzamido-glucopyranose contrast agent can be determined by knowing the hexokinase inhibition constant (Ki) for a selected contrast agent. The ratio of the activity of an enzyme to its maximal activity (Vmax) in the presence of competitive inhibitors is given by the following formula: v/Vmax=[S]/([S]+Km(1+([I]/Ki)), where [S] is glucose concentration, [I] is inhibitor concentration, Km is the Michaelis constant for glucose utilization of hexokinase, and Ki is the inhibition constant for the contrast agent. With no inhibitor present, glucose utilization by human brain hexokinase is represented by a v/Vmax of 0.99 (the Km for glucose utilization by brain hexokinase is 0.05 mM, and typical spinal fluid contains 4 mM glucose).
In a routine myelographic procedure, 780 mM (300 mg I/ml) metrizamide is administered. Substituting this variable into the above Michaelis-Menten equation, one finds a v/Vmax of only 0.25. […]
However because metrizamide is a relatively weak competitive inhibitor of glucose, a small increase in glucose concentration can restore hexokinase-glucose utilization to an effective level. […] By solving for [S] it is calculated that an initial concentration of about 100 mM glucose is needed to counteract the effects of an intrathecal injection of 780 mM metrizamide. […]

[6] = molecular target: T1, human brain hexokinase; experiment: Inhibition constant for human brain hexokinase; type: biochemical; parameters: from tissue; host or cells: human brain; details: with respect to human brain hexokinase; competitive with glucose
Text: as §1
In a routine myelographic procedure, 780 mM (300 mg I/ml) metrizamide is administered. Substituting this variable into the above Michaelis-Menten equation, one finds a v/Vmax of only 0.25. This value represents a significant reduction in glucose utilization. Even if the concentration of metrizamide were diluted tenfold by the time it reached the cerebral surfaces, a v/Vmax of only 0.77 is predicted. Reductions in glucose utilization ranging from 0.6 to 0.7 have been associated with varieties of stupor and coma in humans.

v/Vmax (glucose utilization) ([5]; 780 mM (300 mg I/ml) metrizamide, routine myelographic procedure, typical spinal fluid 4 mM glucose) | v/Vmax (glucose utilization) ([5]; metrizamide concentration diluted tenfold by the time it reaches the cerebral surfaces) | Ki [6] | Compound | Km [1] | mode of hexokinase inhibition [2] | fraction of patients treated with temporary confusional state and EEG deterioration [3] | specific gravity [4]
– | – | – | OC[C@H]1OC(O)[C@H](O)[C@@H](O)[C@@H]1O (stereo partly shown) [glucose] | 50 µM | – | – | –
0.25 | 0.77 | 2500 µM | CC(=O)Nc1c(I)c(C(=O)N[C@H]2C(O)O[C@H](CO)[C@@H](O)[C@@H]2O)c(I)c(N(C)C(C)=O)c1I (stereo partly drawn) [metrizamide, 2-[3-Acetamido-2,4,6-triiodo-5-(N-methylacetamido)benzamido]-2-deoxy-D-glucopyranose] | – | competes with glucose to inhibit hexokinase activity | about one-third | 1.184
